Columns and labels:
[1] = target: GDP-bound KRAS wild-type protein (Homo sapiens, UniProt P01116); experiment: Binding to KRAS by surface plasmon resonance (SPR), Single Cycle Kinetics; details: SPR, Single Cycle Kinetics, 1:1 binding model; GDP-bound KRAS wild-type protein; read-out: KRAS KD
[2] = target: GDP-bound NRAS wild-type protein (Homo sapiens, UniProt P01111); experiment: Binding to NRAS by surface plasmon resonance (SPR), Single Cycle Kinetics; details: SPR; GDP-bound NRAS wild-type protein vs GDP-bound KRAS wild-type protein; KD ratio class
[3] = target: GDP-bound HRAS wild-type protein (Homo sapiens, UniProt P01112); experiment: Binding to HRAS by surface plasmon resonance (SPR), Single Cycle Kinetics; details: SPR; GDP-bound HRAS wild-type protein vs GDP-bound KRAS wild-type protein; KD ratio class
[4] = system: human lung cancer strain NCI-H441;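 further: cell proliferation inhibition after four days measured by CellTiter-Glo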

Chain of GDP-bound KRAS wild-type protein (P01116 whole entry): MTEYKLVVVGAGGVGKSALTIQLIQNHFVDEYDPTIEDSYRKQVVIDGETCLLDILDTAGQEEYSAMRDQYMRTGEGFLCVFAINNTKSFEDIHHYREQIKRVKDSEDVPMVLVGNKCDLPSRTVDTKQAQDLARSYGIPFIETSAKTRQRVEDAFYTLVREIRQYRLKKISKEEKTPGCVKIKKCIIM
Chain of GDP-bound HRAS wild-type protein (P01112 whole entry): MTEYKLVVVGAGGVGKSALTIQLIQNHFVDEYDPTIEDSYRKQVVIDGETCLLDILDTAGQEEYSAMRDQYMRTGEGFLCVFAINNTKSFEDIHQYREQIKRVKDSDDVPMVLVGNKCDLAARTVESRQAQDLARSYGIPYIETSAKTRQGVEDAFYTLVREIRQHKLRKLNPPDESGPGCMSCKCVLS
Chain of GDP-bound NRAS wild-type protein (P01111 whole entry): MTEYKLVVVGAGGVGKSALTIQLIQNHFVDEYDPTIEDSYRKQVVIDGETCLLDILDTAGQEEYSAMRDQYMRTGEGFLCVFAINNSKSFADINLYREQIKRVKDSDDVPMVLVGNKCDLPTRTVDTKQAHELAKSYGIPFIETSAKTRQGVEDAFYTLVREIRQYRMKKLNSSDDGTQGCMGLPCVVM

Row | SMILES | Kd [1] | NRAS/KRAS (ratio of KD value for NRAS to KD value for KRAS) [2] | HRAS/KRAS (ratio of KD value for HRAS to KD value for KRAS) [3] | IC50 [4]
1 | CCO[C@@H]1C[C@H]2C(=O)NC3(CCC3)C(=O)N(C)[C@@H](C3CCCC3)C(=O)N(C)[C@H](C(=O)N(C)C)CC(=O)N(C)[C@@H](CC3CCCC3)C(=O)N[C@@H]([C@@H](C)CC)C(=O)N(C)CC(=O)N(C)[C@H]3C/C=C\CCN(C3=O)[C@@H](Cc3ccc(C(F)(F)F)cc3)C(=O)N(C)CC(=O)N[C@@H](CCc3ccc(C(F)(F)F)c(OC)c3)C(=O)N2C1 [PP1248, (2S,8S,12R,14S,20S,23S,27S,30S,36S,38Z)-20-cyclopentyl-27-(cyclopentylmethyl)-12-ethoxy-8-[2-[3-methoxy-4-(trifluoromethyl)phenyl]ethyl]-N,N,4,19,22,26,32,35-octamethyl-30-[(1S)-1-methylpropyl]-3,6,9,15,18,21,25,28,31,34,42-undecaoxo-2-[[4-(trifluoromethyl)phenyl]methyl]spiro[1,4,7,10,16,19,22,26,29,32,35-undecazatricyclo[34.5.1.0^10,14]dotetracont-38-ene-17,1′-cyclobutane]-23-carboxamide] | 0.069 nM | A (a compound having 10 or more and less than 20 is denoted as A) | A (a compound having 10 or more and less than 20 is denoted as A) | 7.3 nM
2 | CCO[C@@H]1C[C@H]2C(=O)NC3(CCC3)C(=O)N(C)[C@@H](C3CCCC3)C(=O)N(C)[C@H](C(=O)N(C)C)CC(=O)N(C)[C@@H](CC)C(=O)N[C@@H]([C@@H](C)CC)C(=O)N(C)CC(=O)N(C)[C@H]3C/C=C\CCN(C3=O)[C@@H](Cc3ccc(C(F)(F)F)cc3)C(=O)N(C)CC(=O)N[C@@H](CCc3ccc(Cl)c(Cl)c3)C(=O)N2C1 [PP1249] | 0.18 nM | A (a compound having 10 or more and less than 20 is denoted as A) | A (a compound having 10 or more and less than 20 is denoted as A) | 55.4 nM
3 | CCC[C@H]1C(=O)N[C@@H]([C@@H](C)CC)C(=O)N(C)CC(=O)N(C)[C@H]2C/C=C\CCN(C2=O)[C@@H](Cc2ccc(C(F)(F)F)cc2)C(=O)N(C)CC(=O)N[C@@H](CCc2ccc(Cl)c(Cl)c2)C(=O)N2C[C@H](OCC)C[C@H]2C(=O)NC2(CCC2)C(=O)N(C)[C@@H](C2CCCC2)C(=O)N(C)[C@H](C(=O)N(C)C)CC(=O)N1C [PP1250] | 0.19 nM | AA (a compound having 20 or more is denoted as AA) | A (a compound having 10 or more and less than 20 is denoted as A) | 18.7 nM
4 | CCO[C@@H]1C[C@H]2C(=O)NC3(CCC3)C(=O)N(C)[C@@H](C3CCCC3)C(=O)N(C)[C@H](C(=O)N(C)C)CC(=O)N(C)[C@@H](CC(C)C)C(=O)N[C@@H]([C@@H](C)CC)C(=O)N(C)CC(=O)N(C)[C@H]3C/C=C\CCN(C3=O)[C@@H](Cc3ccc(C(F)(F)F)cc3)C(=O)N(C)CC(=O)N[C@@H](CCc3ccc(Cl)c(Cl)c3)C(=O)N2C1 [PP1251] | 0.18 nM | AA (a compound having 20 or more is denoted as AA) | A (a compound having 10 or more and less than 20 is denoted as A) | 10.2 nM
5 | CCCCCC[C@H]1C(=O)N[C@@H]([C@@H](C)CC)C(=O)N(C)CC(=O)N(C)[C@H]2C/C=C\CCN(C2=O)[C@@H](Cc2ccc(C(F)(F)F)cc2)C(=O)N(C)CC(=O)N[C@@H](CCc2ccc(Cl)c(Cl)c2)C(=O)N2C[C@H](OCC)C[C@H]2C(=O)NC2(CCC2)C(=O)N(C)[C@@H](C2CCCC2)C(=O)N(C)[C@H](C(=O)N(C)C)CC(=O)N1C [PP1252] | 0.3 nM | AA (a compound having 20 or more is denoted as AA) | A (a compound having 10 or more and less than 20 is denoted as A) | 51.2 nM
6 | CCO[C@@H]1C[C@H]2C(=O)NC3(CCC3)C(=O)N(C)[C@@H](C3CCCC3)C(=O)N(C)[C@H](C(=O)N(C)C)CC(=O)N(C)[C@@H](CC3CC3)C(=O)N[C@@H]([C@@H](C)CC)C(=O)N(C)CC(=O)N(C)[C@H]3C/C=C\CCN(C3=O)[C@@H](Cc3ccc(C(F)(F)F)cc3)C(=O)N(C)CC(=O)N[C@@H](CCc3ccc(Cl)c(Cl)c3)C(=O)N2C1 [PP1253, (2S,8S,12R,14S,20S,23S,27S,30S,36S,38Z)-20-cyclopentyl-27-(cyclopropylmethyl)-8-[2-(3,4-dichlorophenyl)ethyl]-12-ethoxy-N,N,4,19,22,26,32,35-octamethyl-30-[(1S)-1-methylpropyl]-3,6,9,15,18,21,25,28,31,34,42-undecaoxo-2-[[4-(trifluoromethyl)phenyl]methyl]spiro[1,4,7,10,16,19,22,26,29,32,35-undecazatricyclo[34.5.1.0^10,14]dotetracont-38-ene-17,1′-cyclobutane]-23-carboxamide] | 0.2 nM | A (a compound having 10 or more and less than 20 is denoted as A) | A (a compound having 10 or more and less than 20 is denoted as A) | 22.2 nM
7 | CCO[C@@H]1C[C@H]2C(=O)NC3(CCC3)C(=O)N(C)[C@@H](C3CCCC3)C(=O)N(C)[C@H](C(=O)N(C)C)CC(=O)N(C)[C@@H](CC3CCCC3)C(=O)N[C@@H]([C@@H](C)CC)C(=O)N(C)CC(=O)N(C)[C@H]3C/C=C\CCN(C3=O)[C@@H](Cc3ccc(C(F)(F)F)cc3)C(=O)N(C)CC(=O)N[C@@H](CCc3ccc(Cl)c(Cl)c3)C(=O)N2C1 [PP1254] | 0.2 nM | AA (a compound having 20 or more is denoted as AA) | A (a compound having 10 or more and less than 20 is denoted as A) | 28.3 nM
8 | CCO[C@@H]1C[C@H]2C(=O)NC3(CCC3)C(=O)N(C)[C@@H](C3CCCC3)C(=O)N(C)[C@H](C(=O)N(C)C)CC(=O)N(C)[C@@H](CC)C(=O)N[C@@H]([C@@H](C)CC)C(=O)N(C)CC(=O)N(C)[C@H]3C/C=C\CCN(C3=O)[C@@H](Cc3ccc(C(F)(F)F)cc3)C(=O)N(C)CC(=O)N[C@@H](CCc3ccc4sccc4c3)C(=O)N2C1 [PP1255] | 0.39 nM | A (a compound having 10 or more and less than 20 is denoted as A) | A (a compound having 10 or more and less than 20 is denoted as A) | 156 nM
9 | CCC[C@H]1C(=O)N[C@@H]([C@@H](C)CC)C(=O)N(C)CC(=O)N(C)[C@H]2C/C=C\CCN(C2=O)[C@@H](Cc2ccc(C(F)(F)F)cc2)C(=O)N(C)CC(=O)N[C@@H](CCc2ccc3sccc3c2)C(=O)N2C[C@H](OCC)C[C@H]2C(=O)NC2(CCC2)C(=O)N(C)[C@@H](C2CCCC2)C(=O)N(C)[C@H](C(=O)N(C)C)CC(=O)N1C [PP1256] | 0.36 nM | A (a compound having 10 or more and less than 20 is denoted as A) | A (a compound having 10 or more and less than 20 is denoted as A) | 69 nM
10 | CCO[C@@H]1C[C@H]2C(=O)NC3(CCC3)C(=O)N(C)[C@@H](C3CCCC3)C(=O)N(C)[C@H](C(=O)N(C)C)CC(=O)N(C)[C@@H](CC(C)C)C(=O)N[C@@H]([C@@H](C)CC)C(=O)N(C)CC(=O)N(C)[C@H]3C/C=C\CCN(C3=O)[C@@H](Cc3ccc(C(F)(F)F)cc3)C(=O)N(C)CC(=O)N[C@@H](CCc3ccc4sccc4c3)C(=O)N2C1 [PP1257] | 0.33 nM | A (a compound having 10 or more and less than 20 is denoted as A) | A (a compound having 10 or more and less than 20 is denoted as A) | 54.3 nM
11 | CCCCCC[C@H]1C(=O)N[C@@H]([C@@H](C)CC)C(=O)N(C)CC(=O)N(C)[C@H]2C/C=C\CCN(C2=O)[C@@H](Cc2ccc(C(F)(F)F)cc2)C(=O)N(C)CC(=O)N[C@@H](CCc2ccc3sccc3c2)C(=O)N2C[C@H](OCC)C[C@H]2C(=O)NC2(CCC2)C(=O)N(C)[C@@H](C2CCCC2)C(=O)N(C)[C@H](C(=O)N(C)C)CC(=O)N1C [PP1259] | 0.49 nM | A (a compound having 10 or more and less than 20 is denoted as A) | A (a compound having 10 or more and less than 20 is denoted as A) | 62 nM
12 | CCO[C@@H]1C[C@H]2C(=O)NC3(CCC3)C(=O)N(C)[C@@H](C3CCCC3)C(=O)N(C)[C@H](C(=O)N(C)C)CC(=O)N(C)[C@@H](CC3CC3)C(=O)N[C@@H]([C@@H](C)CC)C(=O)N(C)CC(=O)N(C)[C@H]3C/C=C\CCN(C3=O)[C@@H](Cc3ccc(C(F)(F)F)cc3)C(=O)N(C)CC(=O)N[C@@H](CCc3ccc4sccc4c3)C(=O)N2C1 [PP1260] | 0.37 nM | A (a compound having 10 or more and less than 20 is denoted as A) | A (a compound having 10 or more and less than 20 is denoted as A) | 60.4 nM
13 | CCO[C@@H]1C[C@H]2C(=O)NC3(CCC3)C(=O)N(C)[C@@H](C3CCCC3)C(=O)N(C)[C@H](C(=O)N(C)C)CC(=O)N(C)[C@@H](CC3CCCC3)C(=O)N[C@@H]([C@@H](C)CC)C(=O)N(C)CC(=O)N(C)[C@H]3C/C=C\CCN(C3=O)[C@@H](Cc3ccc(C(F)(F)F)cc3)C(=O)N(C)CC(=O)N[C@@H](CCc3ccc4sccc4c3)C(=O)N2C1 [PP1261] | 0.44 nM | A (a compound having 10 or more and less than 20 is denoted as A) | A (a compound having 10 or more and less than 20 is denoted as A) | 76.8 nM
